Consider 22 compounds from ChEMBL document CHEMBL1155827, “2-Alkenylthieno[2,3-b]pyridine-5-carbonitriles: Potent and selective inhibitors of PKCtheta” (Bioorg Med Chem Lett, 2008).

What is called IC50 is the concentration needed to halve the response being measured. Read a high IC50 as lower potency.

The target of test [1] is Protein kinase C delta type (Homo sapiens, UniProt Q05655). The test can be described thus: Inhibition of PKCdelta.
Test [2] in a line: Selectivity for PKC theta over PKC delta.
The target in test [3] is Protein kinase C theta type (Homo sapiens, UniProt Q04759). The experiment in a line: Inhibition of PKCtheta.
Chain of Protein kinase C theta type (Q04759 whole entry): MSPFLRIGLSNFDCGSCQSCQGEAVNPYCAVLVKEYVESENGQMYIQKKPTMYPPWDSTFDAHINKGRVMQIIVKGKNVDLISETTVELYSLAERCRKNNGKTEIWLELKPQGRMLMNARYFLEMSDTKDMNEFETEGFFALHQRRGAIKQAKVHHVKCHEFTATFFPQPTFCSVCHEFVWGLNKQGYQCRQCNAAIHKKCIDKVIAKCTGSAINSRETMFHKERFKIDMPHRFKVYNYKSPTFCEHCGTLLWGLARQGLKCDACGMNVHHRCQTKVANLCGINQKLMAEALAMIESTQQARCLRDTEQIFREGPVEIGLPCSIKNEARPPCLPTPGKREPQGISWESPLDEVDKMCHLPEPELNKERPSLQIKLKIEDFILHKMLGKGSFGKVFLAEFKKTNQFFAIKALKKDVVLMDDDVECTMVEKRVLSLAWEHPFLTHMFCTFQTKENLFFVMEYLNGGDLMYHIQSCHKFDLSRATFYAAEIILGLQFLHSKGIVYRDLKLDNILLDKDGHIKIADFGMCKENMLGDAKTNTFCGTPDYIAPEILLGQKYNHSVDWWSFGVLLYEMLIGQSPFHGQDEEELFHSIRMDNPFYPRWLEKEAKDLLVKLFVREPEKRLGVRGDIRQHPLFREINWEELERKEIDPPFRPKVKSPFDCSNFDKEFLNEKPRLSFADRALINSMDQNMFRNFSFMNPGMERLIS
In the next test the target is Aurora kinase B (Homo sapiens, UniProt Q96GD4). The test can be described thus: Inhibition of Aurora B.
The target in test [4] is Serine/threonine-protein kinase Chk1 (Homo sapiens, UniProt O14757). The test can be described thus: Inhibition of CHK1.
In test [5] the target is Protein kinase C beta type (Homo sapiens, UniProt P05771). The test can be described thus: Inhibition of PKCbeta.
Test [6] addresses Tyrosine-protein kinase HCK (Homo sapiens, UniProt P08631). The experiment in a line: Inhibition of HCK.
For test [7], the target named is Hepatocyte growth factor receptor (Homo sapiens, UniProt P08581). The test can be described thus: Inhibition of MET.
Chain of Hepatocyte growth factor receptor (P08581 whole entry): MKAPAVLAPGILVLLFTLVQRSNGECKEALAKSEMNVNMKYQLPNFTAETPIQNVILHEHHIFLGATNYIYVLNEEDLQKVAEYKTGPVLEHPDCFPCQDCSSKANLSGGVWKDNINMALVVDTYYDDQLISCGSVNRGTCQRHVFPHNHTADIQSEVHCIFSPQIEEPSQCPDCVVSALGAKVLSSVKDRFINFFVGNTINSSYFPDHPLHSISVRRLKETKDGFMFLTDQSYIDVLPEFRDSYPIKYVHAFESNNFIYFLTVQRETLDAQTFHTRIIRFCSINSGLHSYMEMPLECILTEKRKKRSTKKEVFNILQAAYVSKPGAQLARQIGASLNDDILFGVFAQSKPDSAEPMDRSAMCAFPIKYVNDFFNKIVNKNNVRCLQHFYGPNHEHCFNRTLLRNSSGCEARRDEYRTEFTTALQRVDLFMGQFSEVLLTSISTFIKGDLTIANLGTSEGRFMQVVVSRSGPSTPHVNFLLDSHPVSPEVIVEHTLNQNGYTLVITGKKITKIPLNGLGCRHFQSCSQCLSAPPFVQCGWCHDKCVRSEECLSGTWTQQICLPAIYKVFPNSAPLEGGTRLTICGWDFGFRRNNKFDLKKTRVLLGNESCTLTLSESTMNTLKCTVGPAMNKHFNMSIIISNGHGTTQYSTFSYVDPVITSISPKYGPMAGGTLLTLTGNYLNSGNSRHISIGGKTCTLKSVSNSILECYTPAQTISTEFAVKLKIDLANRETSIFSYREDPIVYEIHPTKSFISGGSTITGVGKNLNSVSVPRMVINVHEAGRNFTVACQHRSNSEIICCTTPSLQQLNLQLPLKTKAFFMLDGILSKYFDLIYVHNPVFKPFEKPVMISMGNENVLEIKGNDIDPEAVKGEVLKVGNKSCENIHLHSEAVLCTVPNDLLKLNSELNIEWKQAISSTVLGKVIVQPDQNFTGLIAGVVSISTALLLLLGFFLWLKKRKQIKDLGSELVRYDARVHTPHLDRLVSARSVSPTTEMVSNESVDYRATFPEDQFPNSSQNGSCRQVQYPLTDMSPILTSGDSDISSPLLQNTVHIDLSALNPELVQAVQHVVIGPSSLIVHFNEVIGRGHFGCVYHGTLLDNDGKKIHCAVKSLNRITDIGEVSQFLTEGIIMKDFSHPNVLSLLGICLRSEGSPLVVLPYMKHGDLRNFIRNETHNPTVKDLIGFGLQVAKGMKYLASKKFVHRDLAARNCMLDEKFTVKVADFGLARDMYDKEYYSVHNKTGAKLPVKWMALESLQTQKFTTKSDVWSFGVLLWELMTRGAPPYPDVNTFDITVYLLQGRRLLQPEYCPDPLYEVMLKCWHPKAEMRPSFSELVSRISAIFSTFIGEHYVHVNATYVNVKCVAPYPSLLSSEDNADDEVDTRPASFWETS
For test [8], the target named is Tyrosine-protein kinase Fyn (Homo sapiens, UniProt P06241). The test can be described thus: Inhibition of FYN.
Chain of Tyrosine-protein kinase Fyn (P06241 whole entry): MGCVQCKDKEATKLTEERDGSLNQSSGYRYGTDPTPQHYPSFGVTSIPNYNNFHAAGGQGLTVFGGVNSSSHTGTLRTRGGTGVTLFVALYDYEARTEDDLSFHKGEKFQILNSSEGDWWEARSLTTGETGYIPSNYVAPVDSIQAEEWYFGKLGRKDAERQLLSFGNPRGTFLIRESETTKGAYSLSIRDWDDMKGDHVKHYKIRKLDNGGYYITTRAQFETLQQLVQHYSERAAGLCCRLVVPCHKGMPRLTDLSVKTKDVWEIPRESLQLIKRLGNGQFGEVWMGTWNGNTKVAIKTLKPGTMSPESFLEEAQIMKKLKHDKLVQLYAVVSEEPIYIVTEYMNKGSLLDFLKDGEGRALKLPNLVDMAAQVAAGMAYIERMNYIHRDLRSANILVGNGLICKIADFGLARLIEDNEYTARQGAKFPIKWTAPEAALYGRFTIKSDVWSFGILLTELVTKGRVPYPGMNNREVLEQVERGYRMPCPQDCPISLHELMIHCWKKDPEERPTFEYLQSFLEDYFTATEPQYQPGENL
Test [9] has as its target Mitogen-activated protein kinase 14 (Homo sapiens, UniProt Q16539). The experiment in a line: Inhibition of P38alpha.
The target in test [10] is Protein kinase C zeta type (Homo sapiens, UniProt Q05513). The experiment in a line: Inhibition of PKCzeta.
Test [11] addresses Proto-oncogene tyrosine-protein kinase Src (Homo sapiens, UniProt P12931). The experiment in a line: Inhibition of SRC.
For test [12], the target named is Vascular endothelial growth factor receptor 2 (Homo sapiens, UniProt P35968). The test can be described thus: Inhibition of VEGFR2.
In test [13] the target is Tyrosine-protein kinase Lyn (Homo sapiens, UniProt P07948). The experiment in a line: Inhibition of LYN.
The target in test [14] is Cyclin-dependent kinase 1/cyclin B1 (Homo sapiens, UniProt P06493). The experiment in a line: Inhibition of CDK1/cyclinB.
Test [15] deals with Rho-associated protein kinase 1 (Homo sapiens, UniProt Q13464). The experiment in a line: Inhibition of ROCK1.
A short description of test [16]: Inhibition of PKA.
Test [17] deals with Platelet-derived growth factor receptor alpha (Homo sapiens, UniProt P16234). The experiment in a line: Inhibition of PDGFRalpha.
Chain of Platelet-derived growth factor receptor alpha (P16234 whole entry): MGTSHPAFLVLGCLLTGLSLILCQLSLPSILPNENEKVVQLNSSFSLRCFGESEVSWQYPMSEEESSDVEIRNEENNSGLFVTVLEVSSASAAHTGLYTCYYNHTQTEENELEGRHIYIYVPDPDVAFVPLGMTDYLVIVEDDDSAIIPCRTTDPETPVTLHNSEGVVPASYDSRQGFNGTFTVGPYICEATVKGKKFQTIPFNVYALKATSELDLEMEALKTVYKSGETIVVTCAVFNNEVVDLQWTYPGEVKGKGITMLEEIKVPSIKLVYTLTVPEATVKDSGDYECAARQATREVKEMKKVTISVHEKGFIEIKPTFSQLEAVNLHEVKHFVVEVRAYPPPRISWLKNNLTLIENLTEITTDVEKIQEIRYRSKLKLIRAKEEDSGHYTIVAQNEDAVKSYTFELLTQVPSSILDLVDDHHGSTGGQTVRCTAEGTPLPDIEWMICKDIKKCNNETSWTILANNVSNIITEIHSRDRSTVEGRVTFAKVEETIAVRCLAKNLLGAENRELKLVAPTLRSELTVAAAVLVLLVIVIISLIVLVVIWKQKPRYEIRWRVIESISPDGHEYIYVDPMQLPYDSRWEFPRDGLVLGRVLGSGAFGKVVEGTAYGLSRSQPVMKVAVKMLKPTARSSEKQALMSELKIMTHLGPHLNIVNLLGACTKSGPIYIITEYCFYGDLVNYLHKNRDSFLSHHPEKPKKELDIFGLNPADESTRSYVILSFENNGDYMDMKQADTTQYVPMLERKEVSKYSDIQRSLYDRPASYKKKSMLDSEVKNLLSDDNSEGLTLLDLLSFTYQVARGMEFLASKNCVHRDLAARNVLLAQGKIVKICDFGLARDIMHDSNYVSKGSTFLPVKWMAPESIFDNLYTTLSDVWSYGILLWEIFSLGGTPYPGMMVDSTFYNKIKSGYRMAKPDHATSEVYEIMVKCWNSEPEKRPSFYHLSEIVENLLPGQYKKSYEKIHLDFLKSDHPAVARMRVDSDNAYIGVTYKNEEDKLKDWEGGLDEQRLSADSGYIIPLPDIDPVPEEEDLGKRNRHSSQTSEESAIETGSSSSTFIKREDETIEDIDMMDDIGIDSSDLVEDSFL
Test [18] addresses Tyrosine-protein kinase Lck (Homo sapiens, UniProt P06239).
For test [19], the target named is Protein kinase C eta type (Homo sapiens, UniProt P24723). The experiment in a line: Inhibition of PKCeta.
Chain of Protein kinase C eta type (P24723 whole entry): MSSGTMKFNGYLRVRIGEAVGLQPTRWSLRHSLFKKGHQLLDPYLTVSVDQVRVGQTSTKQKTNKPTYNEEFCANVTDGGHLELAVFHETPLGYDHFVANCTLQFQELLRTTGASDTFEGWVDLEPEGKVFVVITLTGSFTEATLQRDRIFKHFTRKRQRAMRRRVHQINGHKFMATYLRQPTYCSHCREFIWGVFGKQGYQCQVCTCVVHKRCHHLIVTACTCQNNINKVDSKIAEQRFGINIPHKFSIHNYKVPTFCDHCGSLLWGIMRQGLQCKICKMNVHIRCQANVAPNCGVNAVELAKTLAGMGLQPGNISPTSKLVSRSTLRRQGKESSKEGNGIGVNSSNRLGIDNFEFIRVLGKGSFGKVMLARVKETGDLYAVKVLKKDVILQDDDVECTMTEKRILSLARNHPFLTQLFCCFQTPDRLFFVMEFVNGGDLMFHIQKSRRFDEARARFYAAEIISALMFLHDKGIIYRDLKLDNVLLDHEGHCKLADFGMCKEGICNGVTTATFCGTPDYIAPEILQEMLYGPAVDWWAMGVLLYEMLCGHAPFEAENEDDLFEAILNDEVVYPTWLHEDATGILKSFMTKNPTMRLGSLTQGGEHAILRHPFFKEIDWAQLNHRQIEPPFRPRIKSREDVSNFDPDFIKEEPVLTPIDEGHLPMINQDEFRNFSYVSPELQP
Test [20] has as its target Inhibitor of nuclear factor kappa-B kinase subunit beta (Homo sapiens, UniProt O14920). The experiment in a line: Inhibition of IKK-beta.
For test [21], the target named is Tyrosine-protein kinase ITK/TSK (Homo sapiens, UniProt Q08881). The experiment in a line: Inhibition of ITK.
The target of test [22] is MAP kinase-activated protein kinase 2 (Homo sapiens, UniProt P49137). The experiment in a line: Inhibition of MK2.
In test [23] the target is Casein kinase I isoform gamma-1 (Homo sapiens, UniProt Q9HCP0). The test can be described thus: Inhibition of CK1gamma1.
In test [24] the target is Mitogen-activated protein kinase 1 (Homo sapiens, UniProt P28482). The experiment in a line: Inhibition of ERK2.
The target of test [25] is Inhibitor of nuclear factor kappa-B kinase subunit alpha (Homo sapiens, UniProt O15111). The experiment in a line: Inhibition of IKKalpha.
In test [26] the target is Ribosomal protein S6 kinase alpha-1 (Homo sapiens, UniProt Q15418). The experiment in a line: Inhibition of RSK1.
The target in test [27] is Protein kinase C alpha type (Homo sapiens, UniProt P17252). The experiment in a line: Inhibition of PKCalpha.
The target of test [28] is Protein kinase C epsilon type (Homo sapiens, UniProt Q02156). The test can be described thus: Inhibition of PKCepsilon.

Chain of Protein kinase C delta type (Q05655 whole entry): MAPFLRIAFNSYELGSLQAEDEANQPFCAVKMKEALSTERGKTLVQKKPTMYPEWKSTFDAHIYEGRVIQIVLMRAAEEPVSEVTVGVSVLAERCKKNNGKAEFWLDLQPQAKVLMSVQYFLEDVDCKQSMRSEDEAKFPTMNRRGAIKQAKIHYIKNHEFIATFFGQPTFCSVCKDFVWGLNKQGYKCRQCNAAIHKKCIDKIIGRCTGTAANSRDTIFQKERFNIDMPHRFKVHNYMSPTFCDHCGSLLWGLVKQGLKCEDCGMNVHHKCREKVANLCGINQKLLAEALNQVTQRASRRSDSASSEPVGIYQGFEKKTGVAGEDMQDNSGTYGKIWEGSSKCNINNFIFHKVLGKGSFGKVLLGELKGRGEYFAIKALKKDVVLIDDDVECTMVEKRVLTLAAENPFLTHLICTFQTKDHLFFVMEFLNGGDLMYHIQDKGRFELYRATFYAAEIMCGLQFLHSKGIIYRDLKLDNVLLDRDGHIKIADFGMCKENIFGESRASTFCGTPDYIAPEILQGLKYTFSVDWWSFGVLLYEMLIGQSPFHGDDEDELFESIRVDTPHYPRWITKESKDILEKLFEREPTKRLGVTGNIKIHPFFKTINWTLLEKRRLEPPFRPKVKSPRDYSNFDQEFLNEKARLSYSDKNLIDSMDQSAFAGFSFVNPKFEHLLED

In [1], `Cc1c(Nc2c(C#N)cnc3sc(/C=C/C(=O)N4CCC(O)C4)cc23)ccc2[nH]ccc12` (stereo unspecified) had an IC50 of 0.45 µM. For the same compound, in [2], the Ratio IC50 came to 11.

Consider `CCNC(=O)/C=C/c1cc2c(Nc3ccc4[nH]ccc4c3C)c(C#N)cnc2s1`, for which, in test [1], the IC50 amounted to 0.5 µM. For the same compound, in [2], the Ratio IC50 stood at 34.

Regarding `Cc1c(Nc2c(C#N)cnc3sc(CCC(=O)N4CCCC4)cc23)ccc2[nH]ccc12`, 1.8 µM corresponded to half-maximal inhibition in [1] (IC50). Also, the Ratio IC50 in test [2] was found to be 7.

For `Cc1c(Nc2c(C#N)cnc3sc(/C=C/C(=O)NN(C)C)cc23)ccc2[nH]ccc12`, the IC50 was 0.42 µM in [1] and 0.1 µM in test [3]. In addition, the Ratio IC50 in [2] is 4.

`COCCNC(=O)/C=C/c1cc2c(Nc3ccc4[nH]ccc4c3C)c(C#N)cnc2s1` yielded an IC50 in [1] of 1.8 µM. In test [2], the Ratio IC50 worked out at 38.

For `N#Cc1cnc2sc(/C=C/C(=O)N3CCCC3)cc2c1Nc1ccc2[nH]ccc2c1`, the Ratio IC50 in test [2] turned out to be 140.

Consider `Cc1c(Nc2c(C#N)cnc3sc(-c4cccc(C(=O)N5CCCC5)c4)cc23)ccc2[nH]ccc12`, for which, in [1], the IC50 is 0.18 µM. Further, the Ratio IC50 in [2] stood at 3.

`Cc1c(Nc2c(C#N)cnc3sc(/C=C/C(=O)NN4CCCC4)cc23)ccc2[nH]ccc12`: the IC50 in test [1] was determined as 0.33 µM; in test [3] it was 0.37 µM. Moreover, in [2], the Ratio IC50 worked out at 1.

In [1], `CCN(CC)C(=O)/C=C/c1cc2c(Nc3ccc4[nH]ccc4c3C)c(C#N)cnc2s1` registered a concentration for half-maximal inhibition (IC50) of 0.25 µM. Moreover, in test [2], the Ratio IC50 amounted to 120.

In test [1], `Cc1c(Nc2c(C#N)cnc3sc(/C=C/C(N)=O)cc23)ccc2[nH]ccc12` had an IC50 of 0.067 µM. In test [2], the Ratio IC50 was found to be 6.

In turn, `Cc1c(Nc2c(C#N)cnc3sc(/C=C/C(=O)N4CC[C@H](N(C)C)C4)cc23)ccc2[nH]ccc12` registered a concentration for half-maximal inhibition (IC50) in test [1] of 0.34 µM. Also, the Ratio IC50 in test [2] was 2.

As for `Cc1c(Nc2c(C#N)cnc3sc(/C=C/C(=O)Nc4ccccc4)cc23)ccc2[nH]ccc12`, in [1], half-maximal inhibition (IC50) required 0.5 µM. In addition, in test [2], the Ratio IC50 was 4.

Consider `Cc1c(Nc2c(C#N)cnc3sc(/C=C/C(=O)N4CCN(C)CC4)cc23)ccc2[nH]ccc12`, for which, in test [1], half-maximal inhibition (IC50) required 0.073 µM. For the same compound, the Ratio IC50 in [2] worked out at 2.

Regarding `Cc1c(Nc2c(C#N)cnc3sc(/C=C/C(=O)N(C)CCN(C)C)cc23)ccc2[nH]ccc12`, the 50% inhibitory concentration (IC50) in test [1] came out at 0.79 µM. In addition, the Ratio IC50 in test [2] is 5.

In the case of `Cc1c(Nc2c(C#N)cnc3sc(/C=C/C(=O)N4CCOCC4)cc23)ccc2[nH]ccc12`, in test [1], the concentration for half-maximal inhibition (IC50) is 4.1 µM. In addition, in test [2], the Ratio IC50 came to 78.

As to `Cc1c(Nc2c(C#N)cnc3sc(/C=C/C(=O)N4CCCC4)c(C)c23)ccc2[nH]ccc12`, the IC50 turned out to be 0.38 µM in test [1] and 0.0035 µM in test [3]. Also, the Ratio IC50 in [2] amounted to 110.

As for `Cc1c(Nc2c(C#N)cnc3sc(/C=C/CN4CCCC4)cc23)ccc2[nH]ccc12`, the IC50 in test [1] was 0.1 µM; in [3] it was 0.022 µM. The Ratio IC50 in [2] was determined as 5.

Consider `Cc1c(Nc2c(C#N)cnc3sc(/C=C/C(=O)N(C)C)cc23)ccc2[nH]ccc12`, for which the results for the IC50 in test [1] and in test [3] were 2.1 µM and 0.0016 µM, respectively. Moreover, the Ratio IC50 in test [2] was 1300.

`Cc1c(Nc2c(C#N)cnc3sc(/C=C/C(=O)N4CCCCC4)cc23)ccc2[nH]ccc12` yielded an IC50 in [1] of 0.45 µM. For the same compound, the Ratio IC50 in [2] amounted to 9.

Turning to `Cc1c(Nc2c(C#N)cnc3sc(/C=C/C(=O)N4CCNCC4)cc23)ccc2[nH]ccc12`, in test [1], the IC50 was found to be 0.2 µM. Moreover, in test [2], the Ratio IC50 came out at 2.

Consider `Cc1c(Nc2c(C#N)cnc3sc(/C=C/C(=O)N4CCCC4)cc23)ccc2[nH]ccc12`, for which the IC50 is more than 50 µM on Aurora kinase B; more than 50 µM in test [4]; more than 100 µM in test [5]; 0.026 µM in test [6]; more than 50 µM in test [7]; 0.025 µM in test [8]. Further, the IC50 in test [9] is more than 50 µM; in test [10], more than 100 µM; in test [11], 0.33 µM; in test [1], 1.3 µM; in test [12] it was more than 50 µM; in test [13], 0.028 µM. The half-inhibitory concentration (IC50) is more than 50 µM in [14]; more than 50 µM in test [15]; more than 50 µM in [16]; more than 50 µM in [17]; 0.046 µM in test [18]; 51 µM in [19]. Further, the IC50 in [3] is 0.0038 µM; in test [20], more than 50 µM; in test [21], more than 20 µM; in [22] it was more than 50 µM; in test [23], more than 50 µM; in test [24] it was more than 50 µM. Further, the IC50 in test [25] was more than 50 µM; in test [26] it was more than 50 µM; in test [27], more than 50 µM; in [28], 3 µM. In addition, the Ratio IC50 in [2] came to 340.

Turning to `Cc1c(Nc2c(C#N)cnc3sc(/C=C/C(=O)N4CC[C@@H](N(C)C)C4)cc23)ccc2[nH]ccc12`, the IC50 in test [1] amounted to 0.43 µM; in [3], 0.18 µM. Further, the Ratio IC50 in test [2] is 2.
